This note sets out measurements from ChEMBL document CHEMBL1221189, “Structural basis for macrolactonization by the pikromycin thioesterase” (Nat Chem Biol, 2006).

Experiment [1] concerns Streptomyces venezuelae. Kind of experiment: Inactivation of pikromycin thioesterase in Streptomyces venezuelae assessed as rate of enzymatic hydrolysis of p-nitrophenylpropionate at 2 mM. To be noted: TDE = time-dependent effect.
Experiment [2] concerns Streptomyces venezuelae. Description: Inactivation of pikromycin thioesterase in Streptomyces venezuelae assessed as rate of enzymatic hydrolysis of p-nitrophenylpropionate at 2 mM after 50 mins.
The test system of experiment [3] is Streptomyces venezuelae. Description: Inactivation of pikromycin thioesterase in Streptomyces venezuelae assessed as rate of enzymatic hydrolysis of p-nitrophenylpropionate at 2 mM after 6 hrs.
The subject of experiment [4] is Streptomyces venezuelae. Kind of experiment: Inactivation of pikromycin thioesterase in Streptomyces venezuelae assessed as rate of enzymatic hydrolysis of p-nitrophenylpropionate after 8 hrs.

Calls of active or inactive are those of the source. No cut-off for these calls is given here.

Consider `C[C@@H](CO)C[C@H](C)[C@H](O)[C@@H](C)C(=O)CP(=O)(Oc1ccccc1)Oc1ccccc1`, for which the Activity entry in experiment [1] was “tde”. The fold change (FC) in experiment [2] is 2. Further, the outcome in experiment [3] was Active.
In the case of `CC[C@H](O)[C@@H](C)C(=O)CP(=O)(Oc1ccccc1)Oc1ccccc1`, the outcome in experiment [4] was Active.
